Measurements as given in patent publication US20230263803A1, “METHODS OF PREVENTING OR TREATING COVID-19 AND RELATED VIRAL DISEASES OR DISORDERS” (KINARUS AG, priority 2020, published 2023).

Columns and labels:
[1] = system: SARS-CoV-2B.1.1.7 variant; format: cell-based; details: at the highest concentrations; Vero B4 cells, 72 hrs, qRT-PCR
[2] = system: SARS-CoV-2 B1.351 variant; format: cell-based; details: at the highest concentrations; Vero B4 cells, 72 hrs, qRT-PCR

With `Cn1c(=O)c(Oc2ccc(F)cc2F)cc2cnc(NC(CCO)CCO)nc21` [Pamapimod, 6-(2,4-Difluorophenoxy)-2-[3-hydroxy-1-(2-hydroxyethyl)-propylamino]-8-methyl-8H-pyrido[2,3-d]pyrimidin-7-one] as the compound, how does the “inhibition of viral shedding, B.1.1.7 variant” value [1] read?
The value was over 90%.

What about the “inhibition of viral shedding, B1.351 variant” value [2] of the same compound?
The value was over 90%.
